The values below come from publication PMC3793924, “Targeting Androgen Receptor/Src Complex Impairs the Aggressive Phenotype of Human Fibrosarcoma Cells” (PLoS ONE, 2013).

For data set [1], the system named is KP-2 cells. As to the kind of experiment: BrdU incorporation in KP-2 cells. It is filed as cell-based, human. The conditions noted are these: quiescent KP-2 cells, EGF 100 ng/ml, 18 h; for Inhibition of EGF-induced BrdU incorporation: Casodex 10 μM, S1 and Ss peptides 10 nM. The method, then:
Quiescent human colon cancer-derived HCT116 cells were used. In A, cells on coverslips were left un-stimulated or stimulated for 18 h with the indicated compounds. […] After in vivo pulse with BrdU (100 μM), BrdU incorporation was analyzed by IF and expressed as % of total cells. Several independent experiments were performed in duplicate and the results were derived from at least 400 scored cells for each coverslip. Mean and SEM are shown. n represents the number of experiments. In B, the cells were left untreated or treated for 6 h with the indicated compounds. […] Cells were allowed to migrate in collagen-pre-coated Trans-well filters. Migrated cells were stained and counted as reported in Methods. Results were derived from several independent experiments, each performed in duplicate. Data are expressed as relative increase. Mean and SEM are shown. n represents the number of experiments. Quiescent human pancreatic cancer-derived KP-2 cells were used. In C, cells on coverslips were left unstimulated or stimulated for 18 h with the indicated compounds. […] After in vivo pulse with BrdU (100 μM), BrdU incorporation was analyzed by IF and expressed as % of total cells. Several independent experiments were performed in duplicate and the results were derived from at least 400 scored cells for each coverslip. Mean and SEM are shown. n represents the number of experiments. In D, the cells were left untreated or treated for 6 h with the indicated compounds. […] Cells were allowed to migrate in collagen-pre-coated Trans-well filters. Migrated cells were stained and counted as reported in Methods. Results were derived from several independent experiments, each performed in duplicate. Data are expressed as relative increase. Mean and SEM are shown. n represents the number of experiments. […] After in vivo labeling with 100 μM BrdU (Sigma), DNA synthesis was analyzed by immunofluorescence, using diluted (1:50 in PBS) mouse monoclonal anti-BrdU antibody (clone BU-1, from GE Healthcare).

The nature of data set [2]: Body weight of xenografted mice. It is filed as in vivo. The conditions noted are these: Casodex i.p. on alternate days, 4 weeks; weighed twice weekly. The text has this: HT1080 cells in 50% (v/v) Matrigel solution in phosphate-buffered saline (PBS; pH 7.4) were subcutaneously injected in the dorsal posterior region at 2.5 x 10^6 cells/male athymic mice (CD mice, Charles-River Italia) without hormone priming. Animals were randomly selected for the treatment with Casodex (dissolved in 0.1% ethanol) or DHT (dissolved in 0.1% ethanol) or control vehicle intra-peritoneally for a total of 4 weeks. Each group consisted of six animals. For the treatment of each animal (average weight: 25.08 g), 200 μl of 1 μM Casodex (about 0.1 µg) in 0.1% ethanol or 200 μl of 1 μM DHT (about 3 μg/Kg body weight) or the same amount of vehicle alone were administered to the mice on alternate days. The tumor volumes of HT1080 cell xenografts were measured at indicated intervals in two dimensions by a caliper and expressed as tumor mass (mm^3). This is calculated according to the formula: a^2 × b × 0.5, where a is the width and b is the length of the tumor. Food and water were given ad libitum. […] Animal experimentation was reviewed and approved by the Animal Research Ethical Committee of “Istituto per la Diagnosi e la Cura dei Tumori- Fondazione “G. Pascale” (Naples-ITALY).

Data set [3] relates to HT1080 cell xenografts. As to the kind of experiment: HT1080 cell xenografts in nude male mice, tumor mass. The conditions noted are these: i.p. on alternate days for 4 weeks, Casodex 0.1 μg/mice (4 µg/Kg), DHT 0,1 μg/mice (3 μg/Kg), six animals per group. Format: in vivo. The method, then:
Figure 1 Casodex inhibits the EGF-triggered DNA synthesis in human fibrosarcoma HT1080 cells and reduces the growth of HT1080 xenografts. Human fibrosarcoma HT1080 cells were used. In A, quiescent cells on coverslips were left un-stimulated or stimulated for 18 h with the indicated compounds. […] After in vivo pulse with BrdU (100 μM; Sigma), BrdU incorporation was analyzed by IF and expressed as % of total nuclei. Several independent experiments were performed in duplicate and the results were derived from at least 400 scored cells for each coverslip. Mean and SEM are shown. n represents the number of experiments. (**) p value< 0,001. […] In B, xenografts were established in nude male mice as described in Methods. […] Volumes of HT1080 cell xenografts were measured at the indicated times in two dimensions by a caliper and expressed as tumor mass (mm^3). […]
HT1080 cells in 50% (v/v) Matrigel solution in phosphate-buffered saline (PBS; pH 7.4) were subcutaneously injected in the dorsal posterior region at 2.5 x 10^6 cells/male athymic mice (CD mice, Charles-River Italia) without hormone priming. […] The tumor volumes of HT1080 cell xenografts were measured at indicated intervals in two dimensions by a caliper and expressed as tumor mass (mm^3). This is calculated according to the formula: a^2 × b × 0.5, where a is the width and b is the length of the tumor. […]

Data set [4] has as its system AR/Src complex. On the set-up: method as in PMID 17486077. The following applies: androgen-challenged prostate cancer LNCaP cells; cited from earlier work. The text has this: (§1) Such a crosstalk has been previously analyzed in prostate cancer-derived LNCaP cells. […] The S1 peptide derives from the 377-386 amino-acid sequence of AR that is rich in prolines and is responsible for association of AR with t ...

The subject of data set [5] is HT1080 cells. The conditions noted are these: various cell types, including HT1080 cells (Figure S1); cited from earlier work.
From the text: as §1

Consider `CC(O)(CS(=O)(=O)c1ccc(F)cc1)C(=O)Nc1ccc(C#N)c(C(F)(F)F)c1` (centres unmarked) [Casodex], for which the “Inhibition of EGF-induced BrdU incorporation” value (“Inhibition” below) in data set [1] is “inhibit both DNA synthesis and motility”. Besides, the “Body weight versus control mice” value in data set [2] is given as “no difference in body weight”. Also, the “Growth of HT1080 xenografts (tumor mass)” value in data set [3] is listed as “tumor growth was drastically reduced”.

With Ac-HPKPARIPHP-NH2 [Ss peptide], in data set [1], the “Inhibition” value was “does not interfere with the EGF-elicited responses”.

In the case of Ac-PPPHPHARIK-NH2 [S1 peptide], in data set [1], the “Inhibition” value was “inhibit both DNA synthesis and motility”. Further, the “Competition for AR association with the Src-SH3 domain” value in data set [4] is given as “competes for this association”. The Diffusion across membranes result in data set [5] is on record as “rapidly diffuses across membranes”.

For the compound “EGF: epidermal growth factor (Roche), used as stimulus at 100 ng/ml”, the “BrdU incorporation upon stimulation” value in data set [1] was “significantly increases BrdU incorporation”.
